Data published in patent US20250276081A1, “Mucin-Active Proteases and Methods of Use” (priority 2022, published 2025).

Legend:
[1] = system: Siglec-7 ligand (K562, CCRF-CEM, CCRF-HSB-2 cells); test: Siglec-7-Fc flow cytometry of leukemia cell lines; format: cell-based; conditions: 50 nM StcE, 1 h
Experimental: CD43 and Siglec-7-Fc flow cytometry. 1×10^6 K562, CCRF-CEM, or CCRF-HSB-2 cells growing in log phase were harvested, resuspended in 1 mL of serum-free RPMI, and treated with either vehicle or 50 nM StcE for 1 h. Cells were subsequently spun down at 600× g and washed twice in PBS. Cells were then resuspended in FACS buffer (0.5% BSA in PBS) at 1×10^6 cells/mL and aliquoted into a V-bottom 96-well plate (Corning) at 1×10^5 cells/well. For staining, a precomplex solution of 1 μg/mL Siglec-7-Fc (R&D Systems) and 1 μg/mL Alexa Fluor 488-antihFc was made up in FACS buffer and incubated on ice for 1 h. Alexa Fluor 647 CD43/sialophorin antibody (MEM-59 clone) (Novus Biologicals) was subsequently added to the precomplex solution prior to staining. Cells were stained in 100 μL of staining solution for 30 min, washed twice with FACS buffer, and analyzed by flow cytometry using a BD Accuri C6 plus.

[2] = system: leukemia cell lines (K562, CCRF-CEM, CCRF-HSB-2); test: NK cell killing assay with mucinase-treated leukemia cell lines; format: cell-based, human
Experimental: NK cell isolation. PBMC aliquots were quickly thawed and diluted in 10 mL of RPMI containing DNAase to break up cell aggregates. Cells were incubated at 5% CO2, 37° C. for 30 min and subsequently counted in duplicate. Cells were then spun down at 600× g and resuspended in RPMI to a final cell concentration of 50×10^6 cells/mL. Isolation of NK cells was performed according to manufacturer's instructions using an NK cell magnetic isolation kit (Stem Cell Technologies). NK cells were cultured for at least 24 h before conducting experiments. For killing experiments, NK cells were cultured for 24 h in complete media containing 0.2-0.5 μg/mL IL-2 (BioLegend).
NK cell killing assays. Target cells were harvested by centrifugation and resuspended in serum-free RPMI containing 5 μM Cell Tracker Far Red (Thermo Fisher Scientific) at 5×10^5 cells/mL. Cells were then incubated for 30 min at 37° C.; where indicated, cells were treated with […] StcE. Following staining and StcE treatment, cells were spun down, washed twice with PBS containing 1 mM EDTA, and resuspended in complete media. Cells were diluted to 1×10^5 cells/mL in complete media containing 100 nM Sytox Green, and 100 μL of cell suspension was aliquoted into a flat bottom 96-well plate. Separately, NK cells were diluted to various cell concentrations to generate the indicated effector: target ratios in complete media containing 100 nM Sytox Green. Where indicated, these cell suspensions were treated with 20 nM StcE for 30 min, washed twice with PBS containing 1 mM ETDA, and resuspended in complete media containing 100 nM Sytox Green. 100 μL of these cell suspensions was then mixed with the target cell suspensions to generate a total volume of 200 μL. Cells were incubated at 37° C. for 4 h and analyzed by flow cytometry.

[3] = In vivo biodistribution of IRdye 800CW-labeled StcE; conditions: 0.25 mg/kg I.P.

Substance: StcE: secreted protease of C1 esterase inhibitor, zinc metalloprotease pan mucinase from E. coli O157:H7; SEQ ID NO:1
- Siglec-7 ligand residency [1]: loss of cell surface CD43 and overall Siglec-7 ligand residency
- NK cell killing after StcE treatment of the NK cells ([2]; NK cells treated with StcE): no effect relative to untreated control
- NK cell killing of StcE-treated leukemia cells ([2]; target cells treated with StcE, 4 h with NK cells): increased NK cell surveillance
- Cytotoxicity of StcE treatment of leukemia cell lines ([2]; without NK cells, n=3): statistically significant baseline toxicity increase
- Time remaining in circulation [3]: at least 20 hours
